From PubChem BioAssay (NCI)
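Five compound concentrations were applied to cells in 96-well plates for 48 hours; endpoints were derived by simple linear interpolation of the resulting dose-response curve. TGI is the concentration that stops growth completely.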

Assays:
Experiment in all cases: inhibition of tumour cell growth, NCI panel, 48 h
SF-295 CNS = tested on: SF-295 CNS
CAKI-1 renal = tested on: CAKI-1 renal
NCI-H226 lung = tested on: NCI-H226 lung
COLO 205 colon = tested on: COLO 205 colon
K-562 leukemia = tested on: K-562 leukemia
HS 578T breast = tested on: HS 578T breast
MALME-3M melanoma = tested on: MALME-3M melanoma
MDA-MB-231 breast = tested on: MDA-MB-231 breast
NCI-H23 lung = tested on: NCI-H23 lung
EKVX NSCLC = tested on: EKVX NSCLC
A549 NSCLC = tested on: A549 NSCLC
M14 melanoma = tested on: M14 melanoma
SF-268 CNS = tested on: SF-268 CNS
MDA-MB-435 = tested on: MDA-MB-435
HOP-62 NSCLC = tested on: HOP-62 NSCLC
IGROV1 ovarian = tested on: IGROV1 ovarian
KM12 colon = tested on: KM12 colon
OVCAR-3 ovarian = tested on: OVCAR-3 ovarian
SK-OV-3 ovarian = tested on: SK-OV-3 ovarian
BT-549 breast = tested on: BT-549 breast
OVCAR-8 ovarian = tested on: OVCAR-8 ovarian
TK-10 renal = tested on: TK-10 renal
HOP-92 NSCLC = tested on: HOP-92 NSCLC
OVCAR-4 ovarian = tested on: OVCAR-4 ovarian
SK-MEL-28 melanoma = tested on: SK-MEL-28 melanoma
DU-145 prostate = tested on: DU-145 prostate
UO-31 renal = tested on: UO-31 renal
UACC-62 melanoma = tested on: UACC-62 melanoma
SF-539 CNS = tested on: SF-539 CNS
NCI/ADR-RES ovarian = tested on: NCI/ADR-RES ovarian
SK-MEL-2 melanoma = tested on: SK-MEL-2 melanoma
SNB-75 CNS = tested on: SNB-75 CNS
HCC-2998 colon = tested on: HCC-2998 colon
PC-3 prostate = tested on: PC-3 prostate
OVCAR-5 ovarian = tested on: OVCAR-5 ovarian
ACHN renal = tested on: ACHN renal
SW-620 colon = tested on: SW-620 colon
RXF 393 renal = tested on: RXF 393 renal
SK-MEL-5 melanoma = tested on: SK-MEL-5 melanoma
UACC-257 melanoma = tested on: UACC-257 melanoma
LOX IMVI melanoma = tested on: LOX IMVI melanoma
MDA-N = tested on: MDA-N
HCT-15 colon = tested on: HCT-15 colon
HL-60(TB) leukemia = tested on: HL-60(TB) leukemia
T-47D breast = tested on: T-47D breast
MCF7 breast = tested on: MCF7 breast
CCRF-CEM leukemia = tested on: CCRF-CEM leukemia
HCT-116 colon = tested on: HCT-116 colon
MOLT-4 leukemia = tested on: MOLT-4 leukemia
A498 renal = tested on: A498 renal
SN12C renal = tested on: SN12C renal
SR leukemia = tested on: SR leukemia
786-0 renal = tested on: 786-0 renal
U251 CNS = tested on: U251 CNS
NCI-H522 lung = tested on: NCI-H522 lung
HT29 colon = tested on: HT29 colon

Q: What does the source list for `O=C(O)CN1CCCC(Cc2c[nH]c3ccccc23)C1` (configuration not stated)?
A: TGI (SF-295 CNS): > 100 µM; TGI (CAKI-1 renal): > 100 µM; TGI (NCI-H226 lung): > 100 µM; TGI (COLO 205 colon): > 100 µM; TGI (K-562 leukemia): > 100 µM; TGI (HS 578T breast): > 100 µM; TGI (MALME-3M melanoma): > 100 µM; TGI (MDA-MB-231 breast): > 100 µM; TGI (NCI-H23 lung): > 100 µM; TGI (EKVX NSCLC): > 100 µM; TGI (A549 NSCLC): > 100 µM; TGI (M14 melanoma): > 100 µM; TGI (SF-268 CNS): > 100 µM; TGI (MDA-MB-435): > 100 µM; TGI (HOP-62 NSCLC): > 100 µM; TGI (IGROV1 ovarian): > 100 µM; TGI (KM12 colon): > 100 µM; TGI (OVCAR-3 ovarian): > 100 µM; TGI (SK-OV-3 ovarian): > 100 µM; TGI (BT-549 breast): > 100 µM; TGI (OVCAR-8 ovarian): > 100 µM; TGI (TK-10 renal): > 100 µM; TGI (HOP-92 NSCLC): > 100 µM; TGI (OVCAR-4 ovarian): > 100 µM; TGI (SK-MEL-28 melanoma): > 100 µM; TGI (DU-145 prostate): > 100 µM; TGI (UO-31 renal): > 100 µM; TGI (UACC-62 melanoma): > 100 µM; TGI (SF-539 CNS): > 100 µM; TGI (NCI/ADR-RES ovarian): > 100 µM; TGI (SK-MEL-2 melanoma): > 100 µM; TGI (SNB-75 CNS): > 100 µM; TGI (HCC-2998 colon): > 100 µM; TGI (PC-3 prostate): > 100 µM; TGI (OVCAR-5 ovarian): > 100 µM; TGI (ACHN renal): > 100 µM; TGI (SW-620 colon): > 100 µM; TGI (RXF 393 renal): > 100 µM; TGI (SK-MEL-5 melanoma): > 100 µM; TGI (UACC-257 melanoma): > 100 µM; TGI (LOX IMVI melanoma): > 100 µM; TGI (MDA-N): > 100 µM; TGI (HCT-15 colon): > 100 µM

Q: What does the source list for `CC1(C)Oc2ccc3c(=O)cc(-c4cccs4)oc3c2C1C(=O)O` (configuration not stated)?
A: TGI (SF-295 CNS): > 100 µM; TGI (CAKI-1 renal): 60.4 µM; TGI (NCI-H226 lung): > 100 µM; TGI (HL-60(TB) leukemia): > 100 µM; TGI (T-47D breast): > 100 µM; TGI (COLO 205 colon): > 100 µM; TGI (K-562 leukemia): > 100 µM; TGI (HS 578T breast): > 100 µM; TGI (MALME-3M melanoma): > 100 µM; TGI (MDA-MB-231 breast): > 100 µM; TGI (NCI-H23 lung): > 100 µM; TGI (EKVX NSCLC): > 100 µM; TGI (A549 NSCLC): > 100 µM; TGI (MCF7 breast): > 100 µM; TGI (M14 melanoma): > 100 µM; TGI (CCRF-CEM leukemia): > 100 µM; TGI (SF-268 CNS): > 100 µM; TGI (MDA-MB-435): > 100 µM; TGI (HOP-62 NSCLC): > 100 µM; TGI (IGROV1 ovarian): > 100 µM; TGI (HCT-116 colon): > 100 µM; TGI (MOLT-4 leukemia): > 100 µM; TGI (A498 renal): > 100 µM; TGI (OVCAR-3 ovarian): > 100 µM; TGI (SK-OV-3 ovarian): > 100 µM; TGI (OVCAR-8 ovarian): > 100 µM; TGI (TK-10 renal): > 100 µM; TGI (SN12C renal): > 100 µM; TGI (DU-145 prostate): > 100 µM; TGI (SF-539 CNS): > 100 µM; TGI (SR leukemia): > 100 µM; TGI (NCI/ADR-RES ovarian): > 100 µM; TGI (SK-MEL-2 melanoma): > 100 µM; TGI (HCC-2998 colon): > 100 µM; TGI (PC-3 prostate): > 100 µM; TGI (OVCAR-5 ovarian): > 100 µM; TGI (RXF 393 renal): > 100 µM; TGI (SK-MEL-5 melanoma): > 100 µM; TGI (786-0 renal): > 100 µM; TGI (U251 CNS): > 100 µM; TGI (UACC-257 melanoma): > 100 µM; TGI (NCI-H522 lung): > 100 µM; TGI (MDA-N): > 100 µM; TGI (HT29 colon): > 100 µM
